The target in series [1] is Melanin-concentrating hormone receptor 1 (Homo sapiens) (UniProt Q99705). The series is described as follows: Displacement of [125I]Tyr-S36057 from full length human recombinant SLC1 receptor expressed in CHO-K1 cells at 10 uM measured after 120 mins by radiometric scintillation analysis relative to control. Type of series: cell-based.
Series [2] addresses Ribosomal protein S6 kinase alpha-6 (Homo sapiens, UniProt Q9UK32). The series is described as follows: Inhibition of recombinant full length human N-terminal GST-tagged RPS6KA6 expressed in baculovirus expression system using ser/Thr20 peptide as substrate incubated for 60 mins in presence of ATP by Z'-LYTE assay.
Series [3] has as its target Tyrosine-protein kinase SYK (Homo sapiens, UniProt P43405). The series is described as follows: Inhibition of recombinant full length human GST-tagged SYK expressed in baculovirus expression system using tyrosine-2 peptide as substrate incubated for 60 mins in presence of ATP by Z'-LYTE assay.
Series [4] addresses RAF proto-oncogene serine/threonine-protein kinase (Homo sapiens, UniProt P04049, Y340D/Y341D). The series is described as follows: Inhibition of recombinant human GST-tagged RAF1 Y340D Y341D mutant catalytic domain expressed in baculovirus expression system using serine/threonine-3 peptide as substrate incubated for 60 mins in presence of ATP by Z'-LYTE assay.
In series [5] the target is Androgen receptor (Homo sapiens) (UniProt P10275). The series is described as follows: Displacement of [3H]methyltrienolone from human LNCAP cells derived androgen receptor at 10 uM measured after 20 hrs by scintillation counting method relative to control. Type of series: cell-based.
For a further series, the species on record is Rattus norvegicus. The series is described as follows: Displacement of [3H]hemicholinium-3 from choline transporter in Wistar rat striatal membranes at 10 uM after 20 mins by radiometric scintillation analysis relative to control. Type of series: cell membranes. As to conditions: Striatum, Membrane.
Series [6] can be described thus: Protein binding in dog plasma at 0.5 mg/kg, iv or 1 mg/kg, po. Type of series: ADME, organism-based, Canis lupus familiaris. Particulars: read-out: PPB (converted).
The next series has as its target Caspase-3 (Homo sapiens) (UniProt P42574). The series is described as follows: Inhibition of recombinant full-length human caspase 3 expressed in Escherichia coli at 10 uM using Ac-DEVD-AMC as substrate after 60 mins by spectrophotometric analysis relative to control.
Series [7] deals with B1 bradykinin receptor (Homo sapiens) (UniProt P46663). Nature of the series: Inhibition of human B1 bradykinin receptor at 10 uM relative to control.
Series [8] concerns the target T1, Phosphatidylinositol 4,5-bisphosphate 3-kinase catalytic subunit delta isoform (Homo sapiens, UniProt O00329).
T1 sequence (O00329 whole entry): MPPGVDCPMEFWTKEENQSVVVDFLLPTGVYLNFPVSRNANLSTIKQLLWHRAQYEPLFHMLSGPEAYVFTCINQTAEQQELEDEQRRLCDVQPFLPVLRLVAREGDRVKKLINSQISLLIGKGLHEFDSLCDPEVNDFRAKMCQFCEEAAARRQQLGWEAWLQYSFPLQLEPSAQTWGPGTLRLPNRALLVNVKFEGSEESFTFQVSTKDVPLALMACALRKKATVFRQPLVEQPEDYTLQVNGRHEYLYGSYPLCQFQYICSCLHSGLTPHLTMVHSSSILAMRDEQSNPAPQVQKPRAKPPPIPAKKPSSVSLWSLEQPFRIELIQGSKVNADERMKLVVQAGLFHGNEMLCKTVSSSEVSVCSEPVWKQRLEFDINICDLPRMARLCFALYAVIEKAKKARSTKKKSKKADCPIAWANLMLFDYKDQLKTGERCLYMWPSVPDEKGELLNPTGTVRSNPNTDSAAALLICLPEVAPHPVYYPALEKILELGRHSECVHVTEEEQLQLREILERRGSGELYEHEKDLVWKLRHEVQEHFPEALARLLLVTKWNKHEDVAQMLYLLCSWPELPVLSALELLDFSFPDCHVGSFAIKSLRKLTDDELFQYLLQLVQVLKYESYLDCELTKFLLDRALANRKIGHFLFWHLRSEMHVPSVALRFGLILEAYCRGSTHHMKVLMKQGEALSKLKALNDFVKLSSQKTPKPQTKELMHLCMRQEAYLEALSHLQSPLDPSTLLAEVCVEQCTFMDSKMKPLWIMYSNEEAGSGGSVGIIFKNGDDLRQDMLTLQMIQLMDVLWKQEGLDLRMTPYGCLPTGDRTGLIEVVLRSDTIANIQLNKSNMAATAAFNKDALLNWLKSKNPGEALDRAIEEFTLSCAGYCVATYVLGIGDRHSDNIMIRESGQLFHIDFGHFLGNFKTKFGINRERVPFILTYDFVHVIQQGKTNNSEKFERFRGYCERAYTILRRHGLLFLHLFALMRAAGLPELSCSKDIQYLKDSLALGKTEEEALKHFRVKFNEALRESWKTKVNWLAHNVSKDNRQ
Nature of the series: Inhibition of PI3K delta (unknown origin) by Adapta assay.

The target of series [9] is Receptor-type tyrosine-protein kinase FLT3 (Homo sapiens, UniProt P36888). The series is described as follows: Inhibition of recombinant human His-tagged FLT3 cytoplasmic domain (564 to 958 residues) expressed in baculovirus expression system using tyrosine-2 peptide as substrate incubated for 60 mins in presence of ATP by Z'-LYTE assay.
In series [10] the target is Serine/threonine-protein kinase 3 (Homo sapiens, UniProt Q13188). The series is described as follows: Inhibition of recombinant full length human GST-tagged MST2 expressed in baculovirus expression system using serine/threonine-7 peptide as substrate incubated for 60 mins in presence of ATP by Z'-LYTE assay.
For the next series, the species on record is Homo sapiens. The series is described as follows: Selectivity index, ratio IC50 for inhibition of recombinant human full-length N-terminal His6-tagged p110beta/untagged full-length p85alpha expressed in baculovirus infected Sf21 cells to ratio IC50 for inhibition of recombinant human full-length N-terminal GST-tagged p110delta/untagged full-length p85alpha expressed in baculovirus infected Sf21 cells.

The nature of series [11]: Clearance in human liver microsomes. Type of series: ADME, Microsome. Particulars: read-out: CLH.
Series [12] in a line: Clearance in rat plasma at 0.5 mg/kg, iv or 1 mg/kg, po. The format is ADME, organism-based.
For series [13], the target named is Leucine-rich repeat serine/threonine-protein kinase 2 (Homo sapiens, UniProt Q5S007). Nature of the series: Inhibition of recombinant human GST-tagged LRRK2 catalytic domain (970 to 2527 amino acids) expressed in baculovirus expression system using ERM (LRRKtide) peptide as substrate incubated for 60 mins in presence of ATP by Adapta assay.
Series [14] has as its target Alpha-1A adrenergic receptor (Rattus norvegicus) (UniProt P43140). The series is described as follows: Displacement of [3H]prazosin from alpha1a adrenergic receptor in Wistar rat submaxillary gland membranes at 10 uM measured after 60 mins by scintillation counting method relative to control. Type of series: cell membranes. Particulars: Membrane.
For series [15], the target named is Dual specificity protein kinase CLK3 (Homo sapiens, UniProt P49761). Nature of the series: Inhibition of recombinant full length human GST-tagged CLK3 expressed in baculovirus expression system using serine/threonine-18 peptide as substrate incubated for 60 mins in presence of ATP by Z'-LYTE assay.
In series [16] the target is Maternal embryonic leucine zipper kinase (Homo sapiens, UniProt Q14680). The series is described as follows: Inhibition of recombinant human GST-tagged MELK catalytic domain expressed in baculovirus expression system using serine/threonine-17 peptide as substrate incubated for 60 mins in presence of ATP by Z'-LYTE assay.

Molecules are shown by their SMILES.

Chain of RAF proto-oncogene serine/threonine-protein kinase (P04049 whole entry Y340D/Y341D, the tested form may be a part): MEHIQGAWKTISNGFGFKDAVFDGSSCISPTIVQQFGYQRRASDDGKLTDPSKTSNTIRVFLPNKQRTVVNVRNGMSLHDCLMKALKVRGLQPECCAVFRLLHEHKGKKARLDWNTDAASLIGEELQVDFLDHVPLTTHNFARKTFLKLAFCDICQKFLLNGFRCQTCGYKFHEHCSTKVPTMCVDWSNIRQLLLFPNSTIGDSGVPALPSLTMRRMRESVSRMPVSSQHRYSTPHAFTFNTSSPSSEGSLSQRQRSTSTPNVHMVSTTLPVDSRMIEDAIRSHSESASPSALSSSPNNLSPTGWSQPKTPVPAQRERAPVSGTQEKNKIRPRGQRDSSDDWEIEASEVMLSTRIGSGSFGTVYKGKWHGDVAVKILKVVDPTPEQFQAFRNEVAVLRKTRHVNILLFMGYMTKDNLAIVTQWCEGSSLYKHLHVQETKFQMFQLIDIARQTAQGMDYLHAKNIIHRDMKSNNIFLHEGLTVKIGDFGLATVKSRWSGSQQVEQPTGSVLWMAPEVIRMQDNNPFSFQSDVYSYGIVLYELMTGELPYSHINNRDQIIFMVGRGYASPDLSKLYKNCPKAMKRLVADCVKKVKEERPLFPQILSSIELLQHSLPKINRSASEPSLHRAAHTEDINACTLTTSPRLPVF
Chain of B1 bradykinin receptor (Homo sapiens) (P46663 whole entry, canonical isoform): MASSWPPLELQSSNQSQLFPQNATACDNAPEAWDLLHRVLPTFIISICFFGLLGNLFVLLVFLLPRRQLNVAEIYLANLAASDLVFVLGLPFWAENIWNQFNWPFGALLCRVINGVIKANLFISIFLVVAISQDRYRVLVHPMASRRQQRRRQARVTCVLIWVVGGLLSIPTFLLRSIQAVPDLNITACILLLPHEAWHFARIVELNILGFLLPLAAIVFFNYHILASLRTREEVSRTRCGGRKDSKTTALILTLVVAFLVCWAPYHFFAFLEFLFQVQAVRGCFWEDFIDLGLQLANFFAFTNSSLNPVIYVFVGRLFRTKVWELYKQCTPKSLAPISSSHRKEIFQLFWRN
Chain of Melanin-concentrating hormone receptor 1 (Homo sapiens) (Q99705 whole entry): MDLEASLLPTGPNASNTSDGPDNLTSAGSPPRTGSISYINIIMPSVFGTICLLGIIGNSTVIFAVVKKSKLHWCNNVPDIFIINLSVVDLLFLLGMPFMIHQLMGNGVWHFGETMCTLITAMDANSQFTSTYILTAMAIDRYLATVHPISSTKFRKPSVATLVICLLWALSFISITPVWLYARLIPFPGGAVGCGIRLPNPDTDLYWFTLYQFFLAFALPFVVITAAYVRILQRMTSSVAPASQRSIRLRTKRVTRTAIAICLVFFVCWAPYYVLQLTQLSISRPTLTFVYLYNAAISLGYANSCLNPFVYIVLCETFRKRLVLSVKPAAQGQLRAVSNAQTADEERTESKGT
Chain of Alpha-1A adrenergic receptor (Rattus norvegicus) (P43140 whole entry): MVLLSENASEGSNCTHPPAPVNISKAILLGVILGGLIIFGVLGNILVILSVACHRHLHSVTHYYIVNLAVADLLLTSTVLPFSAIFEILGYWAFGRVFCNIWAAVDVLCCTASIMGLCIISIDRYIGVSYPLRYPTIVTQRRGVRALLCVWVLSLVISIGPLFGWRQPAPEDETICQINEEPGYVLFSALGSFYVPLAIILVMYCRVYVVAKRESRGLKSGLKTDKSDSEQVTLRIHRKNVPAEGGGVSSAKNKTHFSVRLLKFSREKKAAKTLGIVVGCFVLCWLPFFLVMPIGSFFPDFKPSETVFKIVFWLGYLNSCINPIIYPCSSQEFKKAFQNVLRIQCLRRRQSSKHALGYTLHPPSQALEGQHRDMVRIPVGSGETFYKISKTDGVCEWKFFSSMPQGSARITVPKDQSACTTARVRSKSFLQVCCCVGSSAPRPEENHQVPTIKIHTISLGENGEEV
Chain of Androgen receptor (Homo sapiens) (P10275 whole entry): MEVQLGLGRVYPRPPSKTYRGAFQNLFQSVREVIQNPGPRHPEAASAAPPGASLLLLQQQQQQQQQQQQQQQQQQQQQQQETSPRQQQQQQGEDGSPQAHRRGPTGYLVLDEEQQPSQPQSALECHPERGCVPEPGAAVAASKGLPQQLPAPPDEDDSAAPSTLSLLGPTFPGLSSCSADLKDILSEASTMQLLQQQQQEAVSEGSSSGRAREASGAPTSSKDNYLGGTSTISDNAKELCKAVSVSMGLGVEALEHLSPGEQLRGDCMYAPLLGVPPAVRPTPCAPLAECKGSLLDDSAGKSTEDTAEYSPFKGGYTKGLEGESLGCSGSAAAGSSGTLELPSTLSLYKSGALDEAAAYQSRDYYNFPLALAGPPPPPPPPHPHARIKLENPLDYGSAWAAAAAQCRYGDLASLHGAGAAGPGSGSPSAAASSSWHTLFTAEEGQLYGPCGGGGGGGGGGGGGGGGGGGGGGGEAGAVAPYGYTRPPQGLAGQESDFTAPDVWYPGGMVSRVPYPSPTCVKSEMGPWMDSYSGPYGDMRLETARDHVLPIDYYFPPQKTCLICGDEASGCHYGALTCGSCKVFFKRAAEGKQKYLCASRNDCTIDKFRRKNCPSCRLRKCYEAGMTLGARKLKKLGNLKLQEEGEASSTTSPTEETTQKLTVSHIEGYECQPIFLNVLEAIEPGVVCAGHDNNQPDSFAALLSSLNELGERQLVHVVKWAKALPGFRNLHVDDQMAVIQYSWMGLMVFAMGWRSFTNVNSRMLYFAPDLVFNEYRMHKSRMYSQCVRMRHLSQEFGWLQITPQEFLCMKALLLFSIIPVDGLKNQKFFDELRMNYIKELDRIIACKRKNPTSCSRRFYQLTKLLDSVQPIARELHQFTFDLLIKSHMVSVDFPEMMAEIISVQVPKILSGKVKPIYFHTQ
Chain of Ribosomal protein S6 kinase alpha-6 (Q9UK32 whole entry): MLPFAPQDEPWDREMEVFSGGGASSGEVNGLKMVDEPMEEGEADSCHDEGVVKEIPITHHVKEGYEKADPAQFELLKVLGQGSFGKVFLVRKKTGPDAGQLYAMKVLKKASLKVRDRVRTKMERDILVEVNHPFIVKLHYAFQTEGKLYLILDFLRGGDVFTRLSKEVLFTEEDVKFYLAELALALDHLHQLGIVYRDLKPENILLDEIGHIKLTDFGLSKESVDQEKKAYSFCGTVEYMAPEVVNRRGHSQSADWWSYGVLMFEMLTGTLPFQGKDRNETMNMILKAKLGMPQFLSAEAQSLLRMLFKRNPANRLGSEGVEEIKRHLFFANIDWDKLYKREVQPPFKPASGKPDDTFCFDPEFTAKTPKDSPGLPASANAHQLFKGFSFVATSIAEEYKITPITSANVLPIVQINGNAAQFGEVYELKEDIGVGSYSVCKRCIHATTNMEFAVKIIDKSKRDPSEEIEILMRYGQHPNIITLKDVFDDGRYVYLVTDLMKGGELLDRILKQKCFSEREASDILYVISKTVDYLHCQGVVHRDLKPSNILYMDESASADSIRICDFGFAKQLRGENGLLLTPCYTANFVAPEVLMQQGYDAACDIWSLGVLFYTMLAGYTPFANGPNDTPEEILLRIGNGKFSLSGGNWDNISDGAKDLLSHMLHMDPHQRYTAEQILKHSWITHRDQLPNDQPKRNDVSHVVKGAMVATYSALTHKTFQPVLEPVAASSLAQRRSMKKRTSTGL
Chain of Receptor-type tyrosine-protein kinase FLT3 (P36888 whole entry, the tested form may be a part): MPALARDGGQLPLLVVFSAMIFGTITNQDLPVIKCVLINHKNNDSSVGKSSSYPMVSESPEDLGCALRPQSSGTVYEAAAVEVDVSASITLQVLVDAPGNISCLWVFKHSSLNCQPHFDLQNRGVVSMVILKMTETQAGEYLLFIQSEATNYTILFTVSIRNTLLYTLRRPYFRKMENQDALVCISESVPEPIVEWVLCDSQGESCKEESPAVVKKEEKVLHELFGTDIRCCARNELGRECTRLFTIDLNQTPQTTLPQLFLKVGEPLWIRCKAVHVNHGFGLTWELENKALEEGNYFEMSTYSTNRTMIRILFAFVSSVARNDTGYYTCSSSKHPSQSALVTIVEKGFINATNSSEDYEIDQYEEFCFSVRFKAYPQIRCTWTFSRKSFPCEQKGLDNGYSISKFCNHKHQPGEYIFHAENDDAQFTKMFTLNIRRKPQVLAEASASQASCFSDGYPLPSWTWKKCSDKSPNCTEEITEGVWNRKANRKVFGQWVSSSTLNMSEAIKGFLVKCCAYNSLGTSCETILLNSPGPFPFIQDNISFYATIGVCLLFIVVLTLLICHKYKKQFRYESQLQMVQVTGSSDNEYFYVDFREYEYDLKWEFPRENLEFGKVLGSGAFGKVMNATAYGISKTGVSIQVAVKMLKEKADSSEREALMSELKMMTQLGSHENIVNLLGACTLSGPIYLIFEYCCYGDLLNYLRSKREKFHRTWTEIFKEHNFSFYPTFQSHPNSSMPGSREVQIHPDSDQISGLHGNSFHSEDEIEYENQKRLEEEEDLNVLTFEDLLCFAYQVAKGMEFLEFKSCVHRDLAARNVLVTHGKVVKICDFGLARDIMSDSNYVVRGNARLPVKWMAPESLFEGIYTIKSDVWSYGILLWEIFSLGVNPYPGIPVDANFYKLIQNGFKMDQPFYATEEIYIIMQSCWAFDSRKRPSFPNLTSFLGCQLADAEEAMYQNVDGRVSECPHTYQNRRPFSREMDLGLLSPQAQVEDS
Chain of Caspase-3 (Homo sapiens) (P42574 29-175 limits assumed): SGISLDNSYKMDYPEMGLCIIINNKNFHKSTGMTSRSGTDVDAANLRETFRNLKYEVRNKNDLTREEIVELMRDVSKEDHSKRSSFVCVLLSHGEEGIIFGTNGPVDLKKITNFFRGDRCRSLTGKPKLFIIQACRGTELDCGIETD
Chain of Caspase-3 (Homo sapiens) (P42574 176-277 limits assumed): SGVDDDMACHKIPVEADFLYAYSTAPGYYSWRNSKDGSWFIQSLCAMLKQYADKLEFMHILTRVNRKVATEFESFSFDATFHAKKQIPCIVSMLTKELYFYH

With `C[C@@H]1C[C@H]1C(=O)N1CCN(c2cnc(C#N)c(-c3cnn(C)c3)n2)C[C@H]1C`, the inhibition in [1] is -2%; in series [5], 17%; in the series listed under Rattus norvegicus it was -8%; on Caspase-3 (Homo sapiens), 0%; in [7] it was -1%; in series [14], -7%. Also, the IC50 in series [2] was greater than 100 µM; in series [3] it was greater than 100 µM; in series [4], greater than 100 µM; in [8] it was less than 0.01 µM; in series [9], greater than 100 µM; in [10], greater than 100 µM. The IC50 in [13], in series [15] and in series [16] was greater than 100 µM in each case. Besides, the fraction unbound in [6] was 0.213. Also, in the series filed under Homo sapiens, the Ratio IC50 is 2990. Further, the CLint scaled in [11] was less than 16 mL/min/kg. The compound also gave a clearance in series [12] of 28.5 mL/min/kg.

These data come from ChEMBL document CHEMBL4602617, “Discovery and optimization of heteroaryl piperazines as potent and selective PI3Kδ inhibitors” (Bioorg Med Chem Lett, 2020).
